Results as given in US20080118918A1, “Compositions and Methods For Determining and Predicting Treatment Responses For Depression and Anxiety” (THE REGENTS of the University of California, priority 2004, published 2008).

Key:
[1] = tested on: depressed Mexican-Americans; assay: prospective randomized, placebo lead-in, double-blind treatment of fluoxetine or desipramine for eight weeks; HAM-A and HAM-D changes stratified by CRHR1 GAG haplotype; format: in vivo, human; details: fluoxetine 10 mg-40 mg/day vs desipramine 50 mg-200 mg/day, 8 weeks
Source text: The primary outcome measures of the association analysis were the changes in the Hamilton rating scales for anxiety (HAM-A) and depression (HAM-D).
All patients were followed weekly and assessed for changes in the Hamilton rating scales for anxiety (HAM-A) and depression (HAM-D). Inclusion criteria in the study included a HAM-D of 18 or higher. Patients were classified into a high anxiety (HA) group if their HAM-A score was 18 or higher and in a low anxiety (LA) group if their HAM-A score was less than 18.
The study population consisted of 233 depressed subjects enrolled in an ongoing pharmacogenetic study of antidepressant treatment response to desipramine or fluoxetine. Data from the first 80 subjects who completed the protocol and for whom we had available genetic data are reported herein. […] All patients are Mexican-American men and women ages 21-68, with a current episode of major depression as diagnosed by the DSM-IV. In this study, all Mexican-American subjects had at least three grandparents born in Mexico. […]
Eighty subjects were divided into a low anxiety group (LA) with HAM-A score less than 18 at screening and a high anxiety group (HA), with HAM-A scores that were 18 or higher at screening. […] Demographics of the LA group and HA group were assessed for homogeneity using χ^2 or t-tests, as appropriate.

CNS CRH gene expression = details: in vivo; cited from earlier work

Structure (SMILES) | antidepressant effectiveness, comparison of the two drugs [1] | effects on downregulating CNS CRH gene expression (CNS CRH gene expression)
CNCCCN1c2ccccc2CCc2ccccc21 [desipramine] | no differences between the two drugs in terms of antidepressant effectiveness have been observed | equal effects on downregulating CNS CRH gene expression
CNCCC(Oc1ccc(C(F)(F)F)cc1)c1ccccc1 (stereo not shown) [fluoxetine] | no differences between the two drugs in terms of antidepressant effectiveness have been observed | equal effects on downregulating CNS CRH gene expression
